Publication PMC6988736 (Bioorganic & medicinal chemistry letters, 2017)
Like-named read-outs stand apart in the source and are kept apart here.

Key:
[1] = biological target: T1, hTRPV1 (Homo sapiens, UniProt Q8NER1); assay: hTRPV1 antagonism, inhibition of activation by capsaicin; assay type: cell-based; conditions: for hTRPV1 antagonism toward capsaicin (in words): hTRPV1 in CHO cells, capsaicin 100 nM; for inhibition at 5 µM: CHO, read-out: inhibition% at 5 μM
[2] = biological target: T1, hTRPV1; assay: hTRPV1 antagonism, activation by heat; assay type: cell-based
[3] = biological target: T1, hTRPV1; conditions: read-out: heat 45 °C, IC50; hTRPV1, activator heat 45 °C; previous lead; ref [9]; cited from earlier work

T1 sequence (Q8NER1 whole entry): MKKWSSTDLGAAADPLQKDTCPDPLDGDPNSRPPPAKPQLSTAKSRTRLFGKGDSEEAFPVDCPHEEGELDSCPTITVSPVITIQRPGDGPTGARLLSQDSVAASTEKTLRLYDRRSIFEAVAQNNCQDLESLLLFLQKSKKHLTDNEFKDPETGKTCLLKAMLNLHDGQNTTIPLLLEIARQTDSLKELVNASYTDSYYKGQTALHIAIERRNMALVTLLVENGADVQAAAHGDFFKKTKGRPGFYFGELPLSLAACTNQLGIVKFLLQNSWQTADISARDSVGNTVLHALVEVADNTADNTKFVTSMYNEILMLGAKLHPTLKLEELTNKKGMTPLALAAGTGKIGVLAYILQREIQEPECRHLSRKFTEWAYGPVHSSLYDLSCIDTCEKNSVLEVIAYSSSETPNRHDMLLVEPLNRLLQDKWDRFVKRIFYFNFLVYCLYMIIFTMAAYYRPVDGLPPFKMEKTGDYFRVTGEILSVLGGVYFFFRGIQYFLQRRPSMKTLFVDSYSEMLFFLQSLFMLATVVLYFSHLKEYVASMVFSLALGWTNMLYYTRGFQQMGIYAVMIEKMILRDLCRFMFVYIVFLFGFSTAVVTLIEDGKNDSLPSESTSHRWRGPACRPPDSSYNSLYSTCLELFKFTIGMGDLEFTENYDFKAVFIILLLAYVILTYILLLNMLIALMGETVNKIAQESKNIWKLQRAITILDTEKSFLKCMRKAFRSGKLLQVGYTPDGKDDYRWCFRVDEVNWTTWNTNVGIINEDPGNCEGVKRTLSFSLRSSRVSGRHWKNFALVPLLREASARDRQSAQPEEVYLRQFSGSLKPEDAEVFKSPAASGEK

Row | hTRPV1 antagonism toward capsaicin (in words) [1] | inhibition at 5 µM [1] | SMILES | also measured
1 | dramatic reduction in activity | – | COc1ccc(-n2nc(C(C)(C)C)cc2CNC(=O)C(C)c2ccc(NS(C)(=O)=O)c(F)c2)cc1 (stereo not shown) [Compound 9] | –
2 | dramatic reduction in activity | – | CC(C(=O)NCc1cc(C(C)(C)C)nn1-c1ccc(C(C)(C)C)cc1)c1ccc(NS(C)(=O)=O)c(F)c1 (stereo not shown) [Compound 11] | –
3 | dramatic reduction in activity | – | Cc1ccc(/C=C/c2ccc(-n3nc(C(C)(C)C)cc3CNC(=O)C(C)c3ccc(NS(C)(=O)=O)c(F)c3)cc2)cc1 (stereo not shown) [Compound 12] | –
4 | – | – | C[C@H](C(=O)NCc1cc(C(C)(C)C)nn1-c1cccc(Cl)c1)c1ccc(NS(C)(=O)=O)c(F)c1 [Compound 13S] | IC50 [2]: > 5000 nM
5 | high potency | – | C[C@H](C(=O)NCc1cc(C(C)(C)C)nn1-c1ccc(F)c(Cl)c1)c1ccc(NS(C)(=O)=O)c(F)c1 [Compound 14S] | –
6 | high potency | – | CC(C(=O)NCc1cc(C(C)(C)C)nn1-c1ccc(F)c(Cl)c1)c1ccc(NS(C)(=O)=O)c(F)c1 (stereo not shown) [Compound 14] | –
7 | – | 46% | CC(C)(C)c1cc(CNC(=O)C(c2ccc(NS(C)(=O)=O)c(F)c2)C2CCCCC2)n(-c2cccc(Cl)c2)n1 (stereo not shown) [Compound 17] | –
8 | – | 12% | Cc1ccc(C(C(=O)NCc2cc(C(C)(C)C)nn2-c2cccc(Cl)c2)c2ccc(NS(C)(=O)=O)c(F)c2)cc1 (stereo not shown) [Compound 18] | –
9 | – | 49% | CC(C)(C)c1cc(CNC(=O)C(c2cccc(F)c2)c2ccc(NS(C)(=O)=O)c(F)c2)n(-c2cccc(Cl)c2)n1 (stereo not shown) [Compound 19] | –
10 | – | – | CC1CCN(c2nc(C(F)(F)F)ccc2CNC(=O)[C@@H](C)c2ccc(NS(C)(=O)=O)c(F)c2)CC1 [GRT12360] | IC50 [3]: 0.8 nM
